{
  "source": "patent US7544497B2",
  "about": "“Compositions for manipulating the lifespan and stress response of cells and organisms” (President and Fellows of Harvard College, priority 2003, dated 2009)",
  "molecular_target": "T1, recombinant human SIRT1 (Homo sapiens, UniProt Q96EB6)",
  "T1 sequence (Q96EB6 1-747)": "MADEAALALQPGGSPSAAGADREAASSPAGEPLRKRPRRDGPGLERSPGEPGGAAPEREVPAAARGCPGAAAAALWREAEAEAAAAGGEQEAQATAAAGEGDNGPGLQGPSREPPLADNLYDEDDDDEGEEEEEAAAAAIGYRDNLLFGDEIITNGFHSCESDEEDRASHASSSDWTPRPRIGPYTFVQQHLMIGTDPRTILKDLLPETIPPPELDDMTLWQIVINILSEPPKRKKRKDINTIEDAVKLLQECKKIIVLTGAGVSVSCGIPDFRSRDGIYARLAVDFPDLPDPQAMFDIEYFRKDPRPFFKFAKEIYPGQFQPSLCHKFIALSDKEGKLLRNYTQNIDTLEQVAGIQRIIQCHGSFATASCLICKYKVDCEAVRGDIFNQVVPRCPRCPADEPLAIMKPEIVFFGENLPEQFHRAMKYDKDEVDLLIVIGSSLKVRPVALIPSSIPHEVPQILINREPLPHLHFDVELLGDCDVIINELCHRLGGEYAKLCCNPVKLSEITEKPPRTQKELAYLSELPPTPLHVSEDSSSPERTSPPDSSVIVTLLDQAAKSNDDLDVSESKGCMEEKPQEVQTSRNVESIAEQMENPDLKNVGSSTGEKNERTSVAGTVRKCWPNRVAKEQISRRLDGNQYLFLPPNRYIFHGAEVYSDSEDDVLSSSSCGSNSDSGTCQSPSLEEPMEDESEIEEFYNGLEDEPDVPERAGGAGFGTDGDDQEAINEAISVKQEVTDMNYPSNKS",
  "test": "SIRT1 fluorescent deacetylation assay (p53-382 acetylated peptide substrate)",
  "assay_type": "biochemical",
  "conditions": "100 μM resveratrol",
  "from_the_text": "To identify compounds that modulate SIRT1 activity, we screened a number of small molecule libraries using a fluorescent deacetylation assay in 96-well plates^26. The substrate used in the assay was a fluorogenic peptide based on the sequence encompassing the p53-K382 acetylation site, a known target of SIRT1 in vivo^20,21,27. This substrate was preferred over a variety of other fluorogenic peptide substrates that were based on other known HDAC targets (FIG. 5). The small molecule libraries included analogues of nicotinamide, ε-acetyl lysine, NAD^+, nucleotides, nucleotide analogues and purinergic ligands. From the initial screen, several sirtuin inhibitors were found (Supplementary Table 7). However, the most striking outcome was the identification of two compounds, quercetin and piceatannol, that stimulated SIRT1 activity five and eight-fold, respectively (Table 1). Both quercetin and piceatannol have been previously identified as protein kinase inhibitors^28,29.\nHis6-tagged recombinant SIRT1 and GST-tagged recombinant Sir2 were prepared as previously described^26. From 0.1 to 1 μg of SIRT1 and 1.5 μg of Sir2 were used per deacetylation assay (in 50 μl total reaction) as previously described^26. SIRT1 assays and certain of those for Sir2 employed the p53-382 acetylated substrate (‘Fluor de Lys-SIRT1’, BIOMOL) rather than FdL.\nThemed compound libraries (BIOMOL) were used for primary and secondary screening. […] For water soluble compounds and negative controls, 1% v/v DMSO was added to the assay. […] HeLa cells were grown and the cellular deacetylation assays were performed and read, as above, but in full-volume 96-well microplates (Corning Costar 3595). Unless otherwise indicated all initial rate measurements were means of three or more replicates, obtained with single incubation times, at which point 5% or less of the substrate initially present had been deacetylated. Calculation of net fluorescence increases included subtraction of a blank value, which in the case of Sir2 was obtained by omitting the enzyme from the reaction and in the case of SIRT1 by adding an inhibitor (200 μM suramin or 1 mM nicotinamide) to the reaction prior to the acetylated substrate. […] All error bars represent the standard error of the mean.\nAll SIRT1 rate measurements used in the calculation of “Ratio to Control Rate” were obtained with 25 μM NAD^+ and 25 μM p53-382 acetylated peptide substrate were performed as described above and in K. T. Howitz et al. Nature (2003) 425: 191. All ratio data were calculated from experiments in which the total deacetylation in the control reaction was 0.25-1.25 μM peptide or 1-5% of the initial concentration of acetylated peptide.",
  "data": [
    {"smiles": "Oc1ccc(/C=C/c2cc(O)cc(O)c2)cc1", "note": "[Resveratrol, 3,5,4′-Trihydroxy-trans-stilbene]", "values": [
      {"measurement": "Vmax (+resveratrol), NAD+ varied", "setting": "1 mM p53-382 acetylated peptide, control 1863", "result": 1749, "unit": "AFU/min."},
      {"measurement": "Vmax (+resveratrol), p53-382 acetylated peptide varied", "setting": "3 mM NAD+, control 1107", "result": 926, "unit": "AFU/min."}
    ]}
  ]
}
